The record followed here is US11141406B2, “Pharmaceutical compounds” (REVIRAL LIMITED, priority 2017, dated 2021).

A word on the IC50: it is the concentration at which inhibition is half-maximal. By IC90 is commonly meant the concentration needed for an effect of 90%.

One assay relates to RSV A2, 0709161v. In words: RSV plaque reduction assay, alternative conditions (Hep G2 cells). Particulars: human respiratory syncytial virus, HepG2, mean of at least 2 independent experiments, read-out: RSV Plaque Reduction Assay Strain A2 IC50. In kind it is cell-based. On the procedure: (§1) Plates were scanned and analyzed using the Immunospot S6 UV analyzer, which is equipped with BioSpot analysis software for counting immunostained plaques (virospots). Plaque counts were used to calculate % infection relative to the mean of the spot count (SC) in the virus control wells for RSV. IC50/IC90 values were calculated as 50% or 90% reduction in signal, respectively, by interpolation of inhibition curves fitted with a 4-parameter nonlinear regression with a variable slope in GraphPad 5.0 (Prism). Alternatively, where noted the plaque reduction assay was performed as follows. Hep G2 cells (ECACC, 85011430) were passaged in flasks and seeded in 12-well plates in DMEM containing antibiotics and supplemented with 10% FBS, 24 h prior to inoculation. During inoculation and subsequent incubation, cells were cultured in DMEM containing 2% FBS. 75 plaque forming unit (PFU)/well of RSV (RSV A2, 0709161v) was mixed with 8 serial dilutions of compound. Subsequently, 200 μL of the virus/compound mixtures was added to confluent Hep G2 cell monolayers, for a 2 h infection, with manual shaking every 15 min. Infectious supernatant was then removed and replaced with 2 mL of overlay, comprising 4 parts of DMEM+2% FBS and 1 part 4% CMC, with 0.25% DMSO. The cells were incubated at 37° C. in a humidified 5% CO2 incubator for 5 days.
Overlay was removed, and cells were washed with PBS before fixing with a mixture of 75% acetone 25% methanol for 3 minutes and replacing with fresh PBS. […] Staining was carried out whilst shaking at 37° C. First the plates were blocked with 500 uL PBS-T/2% milk powder per well, for 1 hr. This was then replaced with 250 uL PBS-T/2% milk powder containing a pre-titrated amount of the primary antibody (ab1128), for 90 min. The plates were washed 3×5 min with PBS-T, before addition of rabbit anti-goat horse radish peroxidase (AP106P) in 250 μL PBS-T/2% milk powder, and incubated for 1 hr. […]
Plates were scanned and analysed using the Immunospot S6 Macro analyzer, which is equipped with BioSpot analysis software for counting immunostained plaques. […]
For orientation: Plaques are areas of infected cells; plaque reduction assays count them against a control.

The next assay relates to RSV A2 VR-1540. Put plainly: RSV plaque reduction assay, typical conditions (HEp-2 cells). Particulars: human respiratory syncytial virus; for IC90: typical protocol, read-out: RSV Plaque Reduction Assay Strain A2 IC90; for IC50: †: typical protocol, n = 1, read-out: RSV Plaque Reduction Assay Strain A2 IC50. In kind it is cell-based. On the procedure: The plaque reduction assay was typically performed as follows. HEp-2 cells (ATCC, CCL23) were passaged in flasks and seeded in 96-well plates in DMEM containing antibiotics and supplemented with 10% FBS. During inoculation and subsequent incubation, cells were cultured in DMEM containing 3% FBS. 100 plaque forming unit (PFU)/well of RSV (RSV A2 VR-1540) was mixed with ten serial dilutions of compound. Subsequently, 100 μL of the virus/compound mixtures was added to confluent HEp-2 cell monolayers. The cells and virus/compound mixtures were incubated at 35° C. in a humidified 5% CO2 incubator for 1 day.
Cells were washed twice with PBS before adding 50% v % v EtOH/MeOH, and then stored at −20° C. On the day of the staining, fixative was first removed from the plates. Plates were washed 3× with PBS. A pre-titrated amount of the primary antibody was added in 60 μL PBS/2% milk powder, and plates incubated for 1 h at rt. The plates were washed 3× with PBS/0.05% Tween20 before addition of goat anti-mouse horse radish peroxidase in 60 μL PBS/2% milk powder, and incubated for 1 h at rt. Following three wash steps with PBS/0.05% Tween20, 60 μL ready-to-use TrueBlue was added and plates were incubated at it for 10-15 min before adding MilliQ water. Plates were washed once with water, incubated for 30-60 min and after removal of water, air-dried in the dark.
as §1

As for `CC(C)CCn1c(CN2C(=O)C(F)(F)c3ccccc32)nc2cc(CN)ccc21` [Compound 13, 1-{[5-(Aminomethyl)-1-(3-methylbutyl)-1H-1,3-benzodiazol-2-yl]methyl}-3,3-difluoro-2,3-dihydro-1H-indol-2-one], the IC50 in the assay on RSV A2, 0709161v amounted to 4.1 nM.
On the same count and under the same terms, the same measure for `CCS(=O)(=O)N1CCC(n2c(CN3C(=O)C(F)(F)c4ccccc43)nc3cc(Cl)ccc32)CC1` [Compound 9, 1-({5-Chloro-1-[1-(ethanesulfonyl)piperidin-4-yl]-1H-1,3-benzodiazol-2-yl}methyl)-3,3-difluoro-2,3-dihydro-1H-indol-2-one]: 12.6 nM.
As to `CS(=O)(=O)CCCn1c(CN2C(=O)C(F)(F)c3ccccc32)nc2cc(Cl)ccc21` [Compound 5, 1-{[5-Chloro-1-(3-methanesulfonylpropyl)-1H-1,3-benzodiazol-2-yl]methyl}-3,3-difluoro-2,3-dihydro-1H-indol-2-one], in the assay with RSV A2 VR-1540, the IC90 stood at 4.4 nM and the IC50 was 1.4 nM.
For `O=C1N(Cc2nc3cc(Cl)ccc3n2C2CCOCC2)c2ccccc2C1(F)F` [Compound 10, 1-{[5-Chloro-1-(oxan-4-yl)-1H-1,3-benzodiazol-2-yl]methyl}-3,3-difluoro-2,3-dihydro-1H-indol-2-one], in that order: 53 nM and 6.4 nM.
